Measurements as given in patent US20250059171A1 (Hoffmann-La Roche Inc., priority 2021, published 2025).

How the values were obtained:
SARS-CoV 3CLpro = SARS-CoV 3CLpro (Severe acute respiratory syndrome coronavirus, UniProt P0C6X7); assay: biochemical
HCoV-229E 3CLpro = HCoV-229E 3CLpro (Human coronavirus 229E, UniProt P0C6X1); assay: HCoV-229E 3CLpro inhibition assay (FRET); type: biochemical
SARS-CoV-2 3CLpro = SARS-CoV-2 3CLpro (Severe acute respiratory syndrome coronavirus 2, UniProt P0DTD1); assay: biochemical
MERS-CoV 3CLpro = MERS-CoV 3CLpro (Middle East respiratory syndrome-related coronavirus, UniProt K9N7C7); assay: biochemical
Chain of MERS-CoV 3CLpro (K9N7C7 3248-3553): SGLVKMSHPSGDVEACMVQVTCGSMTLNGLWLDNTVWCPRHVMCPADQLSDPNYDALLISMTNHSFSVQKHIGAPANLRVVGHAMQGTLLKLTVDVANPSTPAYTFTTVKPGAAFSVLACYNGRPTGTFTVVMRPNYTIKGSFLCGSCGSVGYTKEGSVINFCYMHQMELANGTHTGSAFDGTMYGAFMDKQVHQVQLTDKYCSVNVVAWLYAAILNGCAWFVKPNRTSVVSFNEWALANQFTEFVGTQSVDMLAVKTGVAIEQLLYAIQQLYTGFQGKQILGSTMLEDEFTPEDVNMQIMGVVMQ

Chain of HCoV-229E 3CLpro (P0C6X1 2966-3267): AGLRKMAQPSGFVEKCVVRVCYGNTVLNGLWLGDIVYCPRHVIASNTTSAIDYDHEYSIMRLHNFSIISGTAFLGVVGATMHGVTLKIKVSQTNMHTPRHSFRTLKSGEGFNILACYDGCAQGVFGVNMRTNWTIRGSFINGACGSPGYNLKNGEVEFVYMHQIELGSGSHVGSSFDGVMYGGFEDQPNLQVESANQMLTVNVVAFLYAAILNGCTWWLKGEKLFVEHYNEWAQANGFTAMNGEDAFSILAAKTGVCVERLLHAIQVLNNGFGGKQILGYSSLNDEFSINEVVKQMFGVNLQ

CC[C@H](C)[C@H](NC(=O)[C@@H](F)Cl)C(=O)N1C[C@@H]2CCC[C@@H]2[C@H]1C(=O)NN(C[C@H]1CCCNC1=O)C(=O)[C@@H](F)Cl [Example 193, (2S)—N-[(1S,2S)-1-[(3S,3aS,6aR)-3-[[[(2S)-2-chloro-2-fluoro-acetyl]-[[(3R)-2-oxo-3-piperidyl]methyl]amino]carbamoyl]-3,3a,4,5,6,6a-hexahydro-1H-cyclopenta[c]pyrrole-2-carbonyl]-2-methyl-butyl]-2-chloro-2-fluoro-acetamide]
IC50 (SARS-CoV 3CLpro): 33 nM | IC50 (HCoV-229E 3CLpro): 49 nM | IC50 (SARS-CoV-2 3CLpro): 17 nM | IC50 (MERS-CoV 3CLpro): 110 nM

CC(C)(C)[C@H](NC(=O)C1(F)CC1)C(=O)N1C[C@@H]2CCC[C@@H]2[C@H]1C(=O)NN(C[C@@H]1CCNC1=O)C(=O)[C@H](F)Cl [Example 82, N-[(1S)-1-[(3S,3aS,6aR)-3-[[[(2R)-2-chloro-2-fluoro-acetyl]-[[(3S)-2-oxopyrrolidin-3-yl]methyl]amino]carbamoyl]-3,3a,4,5,6,6a-hexahydro-1H-cyclopenta[c]pyrrole-2-carbonyl]-2,2-dimethyl-propyl]-1-fluoro-cyclopropanecarboxamide]
IC50 (SARS-CoV 3CLpro): 12 nM | IC50 (HCoV-229E 3CLpro): 33 nM | IC50 (SARS-CoV-2 3CLpro): 8 nM | IC50 (MERS-CoV 3CLpro): 84 nM

CCC(C)(C)[C@H](NC(=O)C(F)(F)F)C(=O)N1C[C@H]2[C@@H]([C@H]1C(=O)NN(C[C@@H]1CCNC1=O)C(=O)[C@H](F)Cl)C2(C)C [Example 86, N-[(1S)-1-[(1R,2S,5S)-2-[[[(2R)-2-chloro-2-fluoro-acetyl]-[[(3S)-2-oxopyrrolidin-3-yl]methyl]amino]carbamoyl]-6,6-dimethyl-3-azabicyclo[3.1.0]hexane-3-carbonyl]-2,2-dimethyl-butyl]-2,2,2-trifluoro-acetamide]
IC50 (SARS-CoV 3CLpro): 19 nM | IC50 (HCoV-229E 3CLpro): 35 nM | IC50 (SARS-CoV-2 3CLpro): 7 nM | IC50 (MERS-CoV 3CLpro): 86 nM

CC(C)(C)[C@H](NC(=O)[C@@H]1CC1(F)F)C(=O)N1C[C@H](C(F)(F)F)C[C@H]1C(=O)NN(C[C@@H]1CCNC1=O)C(=O)[C@@H](F)Cl [Example 159, (1S)—N-[(1S)-1-[(2S,4R)-2-[[[(2S)-2-chloro-2-fluoro-acetyl]-[[(3S)-2-oxopyrrolidin-3-yl]methyl]amino]carbamoyl]-4-(trifluoromethyl)pyrrolidine-1-carbonyl]-2,2-dimethyl-propyl]-2,2-difluoro-cyclopropanecarboxamide]
IC50 (SARS-CoV 3CLpro): 13 nM | IC50 (HCoV-229E 3CLpro): 40 nM | IC50 (SARS-CoV-2 3CLpro): 13 nM | IC50 (MERS-CoV 3CLpro): 103 nM

C[C@H](NC(=O)C(F)(F)F)C(=O)N1C[C@@H]2CCC[C@@H]2[C@H]1C(=O)NN(C[C@@H]1CCNC1=O)C(=O)[C@H](F)Cl [Example 75, N-[(1S)-2-[(3S,3aS,6aR)-3-[[[(2R)-2-chloro-2-fluoro-acetyl]-[[(3S)-2-oxopyrrolidin-3-yl]methyl]amino]carbamoyl]-3,3a,4,5,6,6a-hexahydro-1H-cyclopenta[c]pyrrol-2-yl]-1-methyl-2-oxo-ethyl]-2,2,2-trifluoro-acetamide]
IC50 (SARS-CoV 3CLpro): 12 nM | IC50 (HCoV-229E 3CLpro): 33 nM | IC50 (SARS-CoV-2 3CLpro): 12 nM | IC50 (MERS-CoV 3CLpro): 83 nM

CC[C@H](C)[C@H](NC(=O)C1CC(F)(F)C1)C(=O)N1C[C@H]2[C@@H]([C@H]1C(=O)NN(C[C@@H]1CCNC1=O)C(=O)[C@H](F)Cl)C2(C)C [Example 58, N-[(1S,2S)-1-[(1R,2S,5S)-2-[[[(2R)-2-chloro-2-fluoro-acetyl]-[[(3S)-2-oxopyrrolidin-3-yl]methyl]amino]carbamoyl]-6,6-dimethyl-3-azabicyclo[3.1.0]hexane-3-carbonyl]-2-methyl-butyl]-3,3-difluoro-cyclobutanecarboxamide]
IC50 (SARS-CoV 3CLpro): 15 nM | IC50 (HCoV-229E 3CLpro): 26 nM | IC50 (SARS-CoV-2 3CLpro): 11 nM | IC50 (MERS-CoV 3CLpro): 73 nM

CC[C@H](C)[C@H](NC(=O)C1(F)CC1)C(=O)N1C[C@H]2[C@@H]([C@H]1C(=O)NN(C[C@@H]1CCNC1=O)C(=O)[C@H](F)Cl)C2(C)C [Example 59, N-[(1S,2S)-1-[(1R,2S,5S)-2-[[[(2R)-2-chloro-2-fluoro-acetyl]-[[(3S)-2-oxopyrrolidin-3-yl]methyl]amino]carbamoyl]-6,6-dimethyl-3-azabicyclo[3.1.0]hexane-3-carbonyl]-2-methyl-butyl]-1-fluoro-cyclopropanecarboxamide]
IC50 (SARS-CoV 3CLpro): 17 nM | IC50 (HCoV-229E 3CLpro): 21 nM | IC50 (SARS-CoV-2 3CLpro): 7 nM | IC50 (MERS-CoV 3CLpro): 62 nM

CC(C)(C)[C@H](NC(=O)C12CC(C1)C2)C(=O)N1C[C@H]2[C@@H]([C@H]1C(=O)NN(C[C@@H]1CCNC1=O)C(=O)[C@H](F)Cl)C2(C)C [Example 15, N-[(1S)-1-[(1R,2S,5S)-2-[[[(2R)-2-chloro-2-fluoro-acetyl]-[[(3S)-2-oxopyrrolidin-3-yl]methyl]amino]carbamoyl]-6,6-dimethyl-3-azabicyclo[3.1.0]hexane-3-carbonyl]-2,2-dimethyl-propyl]bicyclo[1.1.1]pentane-1-carboxamide]
IC50 (SARS-CoV 3CLpro): 26 nM | IC50 (HCoV-229E 3CLpro): 55 nM | IC50 (SARS-CoV-2 3CLpro): 8 nM | IC50 (MERS-CoV 3CLpro): 204 nM

CC[C@H](C)[C@H](NC(=O)C(C)(F)F)C(=O)N1C[C@@H]2CCC[C@@H]2[C@H]1C(=O)NN(C[C@@H]1CCNC1=O)C(=O)[C@H](F)Cl [Example 40, N-[(1S,2S)-1-[(3S,3aS,6aR)-3-[[[(2R)-2-chloro-2-fluoro-acetyl]-[[(3S)-2-oxopyrrolidin-3-yl]methyl]amino]carbamoyl]-3,3a,4,5,6,6a-hexahydro-1H-cyclopenta[c]pyrrole-2-carbonyl]-2-methyl-butyl]-2,2-difluoro-propanamide]
IC50 (SARS-CoV 3CLpro): 13 nM | IC50 (HCoV-229E 3CLpro): 27 nM | IC50 (SARS-CoV-2 3CLpro): 21 nM | IC50 (MERS-CoV 3CLpro): 50 nM

CC[C@H](C)[C@H](NC(=O)C1CC(F)(F)C1)C(=O)N1C[C@@H]2CCC[C@@H]2[C@H]1C(=O)NN(C[C@@H]1CCNC1=O)C(=O)[C@H](F)Cl [Example 126, N-[(1S,2S)-1-[(3S,3aS,6aR)-3-[[[(2R)-2-chloro-2-fluoro-acetyl]-[[(3S)-2-oxopyrrolidin-3-yl]methyl]amino]carbamoyl]-3,3a,4,5,6,6a-hexahydro-1H-cyclopenta[c]pyrrole-2-carbonyl]-2-methyl-butyl]-3,3-difluoro-cyclobutanecarboxamide]
IC50 (SARS-CoV 3CLpro): 11 nM | IC50 (HCoV-229E 3CLpro): 28 nM | IC50 (SARS-CoV-2 3CLpro): 10 nM | IC50 (MERS-CoV 3CLpro): 68 nM

CC(C)(C)[C@H](NC(=O)C(F)(F)F)C(=O)N1C[C@@H]2CC[C@@H]2[C@H]1C(=O)NN(C[C@@H]1CCNC1=O)C(=O)[C@H](F)Cl [Example 5, N-[(1S)-1-[(1S,2S,5R)-2-[[[(2R)-2-chloro-2-fluoro-acetyl]-[[(3S)-2-oxopyrrolidin-3-yl]methyl]amino]carbamoyl]-3-azabicyclo[3.2.0]heptane-3-carbonyl]-2,2-dimethyl-propyl]-2,2,2-trifluoro-acetamide]
IC50 (SARS-CoV 3CLpro): 19 nM | IC50 (HCoV-229E 3CLpro): 104 nM | IC50 (SARS-CoV-2 3CLpro): 10 nM | IC50 (MERS-CoV 3CLpro): 303 nM

CCC(C)(C)[C@H](NC(=O)[C@@H]1CC1(F)F)C(=O)N1C[C@@H]2CCC[C@@H]2[C@H]1C(=O)NN(C[C@@H]1CCNC1=O)C(=O)[C@H](F)Cl [Example 150, (1S)—N-[(1S)-1-[(3S,3aS,6aR)-3-[[[(2R)-2-chloro-2-fluoro-acetyl]-[[(3S)-2-oxopyrrolidin-3-yl]methyl]amino]carbamoyl]-3,3a,4,5,6,6a-hexahydro-1H-cyclopenta[c]pyrrole-2-carbonyl]-2,2-dimethyl-butyl]-2,2-difluoro-cyclopropanecarboxamide]
IC50 (SARS-CoV 3CLpro): 16 nM | IC50 (HCoV-229E 3CLpro): 33 nM | IC50 (SARS-CoV-2 3CLpro): 11 nM | IC50 (MERS-CoV 3CLpro): 63 nM
